This passage reports GI50 and TGI results from PubChem BioAssay (NCI).

Molecules are shown by their SMILES. Several values for one entry are separate records, joined by “and”; a condition that tells them apart may be missing. Equal values may be shown once.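 Protocol summary: plate cells (96-well), add compound at 5 concentrations, incubate 48 h, interpolate endpoints linearly. Abbreviation: GI50, concentration required for 50% inhibition of growth. At the TGI there is no net growth.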 Where a SMILES comes first, the peptide text is derived from it. [ ]: non-standard residue; d: D form. The star is where a group is joined. ξ: configuration not given here. X6 = FC(F)(F)c1cc(NC(=S)*)cc(C(F)(F)F)c1; ξF = NC(Cc1ccccc1)C(=O)O

The first experiment concerns PC-3 prostate. The experiment in a line: NCI tumour cell line growth inhibition, 48 h.
In the case of `NC(=O)c1sc(-n2cnc3ccccc32)cc1OCc1ccccc1Br`, the GI50 is 10.3 µM and the TGI is above 25 µM.

As for `Clc1ccc2c(NCCCCNc3nc(N4CCCCC4)nc4ccccc34)ccnc2c1`, the GI50 is 3.33 µM and the TGI came out at 14.6 µM.

As for `COc1cc(/C=N/NC(=O)c2ccc(C(F)(F)F)nc2Nc2ccc(Cl)cc2C)ccc1O`, the GI50 is 1.89 µM and the TGI turned out to be 9.87 µM.

For the compound `O=C1CC(c2ccc3c(c2)OCO3)Nc2ccccc21` (stereo not given), the GI50 is 3.83 µM and the TGI came out at 36.6 µM.

On to `O=C1C(Cl)=C(Nc2cccc(Cl)c2)C(=O)N1Cc1ccc(Cl)cc1Cl`, for which the GI50 was 2.94 µM and the TGI was above 50.3 µM.

As for `COC1CCC(N2C(=O)CNc3ncc(-c4ccc(C(C)(C)O)nc4)nc32)CC1` (stereo not given), the GI50 was 0.322 µM and 0.108 µM; the TGI was 4.2 µM and > 33.5 µM.

For `Cc1cc(I)cc(CN(C)CCCCN2CCCCC2)c1O`, the GI50 is 15 µM and the TGI was 32 µM.

A further experiment has as its system UACC-257 melanoma. In words: NCI tumour cell line growth inhibition, 48 h.
For `O=C1C=C(Cl)C(=O)C(c2ccc(Cl)cc2)=C1`, the TGI was found to be 40.7 µM.

For the compound `COc1cc(-c2nn(-c3ccc(NC(=O)c4ccc(Cl)c(C(F)(F)F)c4)cc3)cc2-c2ccncc2)ccc1Cl`, the GI50 is 6.91 µM and the TGI was above 100 µM.

With `O=C(Nc1ccccc1OC(F)(F)F)Nc1n[nH]c2ccccc12`, the GI50 was 47.2 µM and the TGI is above 100 µM.

Regarding `O=C(/C=C/C12c3ccccc3C(c3ccccc31)C1C(=O)NC(=O)C12)c1ccncc1` (stereo not given), the GI50 was 2.7 µM and the TGI turned out to be 9.19 µM.

Consider `O=CN/C=C/c1cc(O)ccc1O`, for which the TGI was found to be 27.8 µM.

Regarding `COC(=O)[C@@H](NC(=O)CNC(=O)[C@H]1CCCN1C(=O)C(Cc1ccccc1)NC(=S)Nc1cc(C(F)(F)F)cc(C(F)(F)F)c1)C(C)C` (stereo not given in full) (X6-[ξF][dP]GV-OMe), the GI50 is 2.14 µM and the TGI came out at 5.75 µM.

In the case of `COc1cc(Cc2cnc(/N=C3\C(=O)N(CN4CCN(c5c(F)cc6c(=O)c(C(=O)O)cn(C7CC7)c6c5OC)CC4C)c4ccc(F)cc43)nc2N)cc(OC)c1OC` (stereo not given), the GI50 was 22.3 µM and the TGI was found to be 44.1 µM.

For `O=C1/C(=C/c2cccc([N+](=O)[O-])c2)COc2ccc(O)cc21`, the GI50 was 2.37 µM and the TGI stood at 6.66 µM.

Turning to `NC(=O)c1sc(-n2cnc3ccccc32)cc1OCc1ccccc1Br`, the GI50 was 17.3 µM and the TGI is above 25 µM.

`Clc1ccc2c(NCCCCNc3nc(N4CCCCC4)nc4ccccc34)ccnc2c1`: the GI50 was 2.05 µM and the TGI was determined as 3.68 µM.

On to `COc1cc(/C=N/NC(=O)c2ccc(C(F)(F)F)nc2Nc2ccc(Cl)cc2C)ccc1O`, for which the GI50 was 3.97 µM and the TGI worked out at 13.4 µM.

Take `O=C1CC(c2ccc3c(c2)OCO3)Nc2ccccc21` (stereo not given): the GI50 was 26.4 µM and the TGI is above 60.4 µM.

Take `O=C1C(Cl)=C(Nc2cccc(Cl)c2)C(=O)N1Cc1ccc(Cl)cc1Cl`: the GI50 was 5.94 µM and the TGI was found to be 24.8 µM.

As to `COC1CCC(N2C(=O)CNc3ncc(-c4ccc(C(C)(C)O)nc4)nc32)CC1` (stereo not given), the GI50 was 0.649 µM and 0.195 µM; the TGI was 5.23 µM and 3.83 µM.

Turning to `Cc1cc(I)cc(CN(C)CCCCN2CCCCC2)c1O`, the GI50 is 4.2 µM and the TGI was 15.1 µM.

Another experiment has as its system UO-31 renal. The experiment in a line: NCI tumour cell line growth inhibition, 48 h.
Compound `O=C1C=C(Cl)C(=O)C(c2ccc(Cl)cc2)=C1` showed a TGI of 28.5 µM.

Consider `COc1cc(-c2nn(-c3ccc(NC(=O)c4ccc(Cl)c(C(F)(F)F)c4)cc3)cc2-c2ccncc2)ccc1Cl`, for which the GI50 was 1.65 µM and the TGI came out at 5.46 µM.

Consider `O=C(Nc1ccccc1OC(F)(F)F)Nc1n[nH]c2ccccc12`, for which the GI50 was 17.4 µM and the TGI is above 100 µM.

Take `O=C(/C=C/C12c3ccccc3C(c3ccccc31)C1C(=O)NC(=O)C12)c1ccncc1` (stereo not given): the GI50 was 1.48 µM and the TGI is 4.8 µM.

In the case of `O=CN/C=C/c1cc(O)ccc1O`, the TGI is 46.3 µM.

As for `COC(=O)[C@@H](NC(=O)CNC(=O)[C@H]1CCCN1C(=O)C(Cc1ccccc1)NC(=S)Nc1cc(C(F)(F)F)cc(C(F)(F)F)c1)C(C)C` (stereo not given in full) (X6-[ξF][dP]GV-OMe), the GI50 is 2.91 µM and the TGI came out at 13.9 µM.

Take `COc1cc(Cc2cnc(/N=C3\C(=O)N(CN4CCN(c5c(F)cc6c(=O)c(C(=O)O)cn(C7CC7)c6c5OC)CC4C)c4ccc(F)cc43)nc2N)cc(OC)c1OC` (stereo not given): the GI50 is 31.7 µM and the TGI was above 100 µM.

Take `O=C1/C(=C/c2cccc([N+](=O)[O-])c2)COc2ccc(O)cc21`: the GI50 was 1.51 µM and the TGI worked out at 2.93 µM.

Turning to `NC(=O)c1sc(-n2cnc3ccccc32)cc1OCc1ccccc1Br`, the GI50 was 15.4 µM and the TGI was above 25 µM.

For `Clc1ccc2c(NCCCCNc3nc(N4CCCCC4)nc4ccccc34)ccnc2c1`, the GI50 was 1.47 µM and the TGI was determined as 3.05 µM.

`COc1cc(/C=N/NC(=O)c2ccc(C(F)(F)F)nc2Nc2ccc(Cl)cc2C)ccc1O`: the GI50 was 1.39 µM and the TGI was 7.76 µM.

Regarding `O=C1CC(c2ccc3c(c2)OCO3)Nc2ccccc21` (stereo not given), the GI50 was 5.9 µM and the TGI was determined as 19.4 µM.

Consider `O=C1C(Cl)=C(Nc2cccc(Cl)c2)C(=O)N1Cc1ccc(Cl)cc1Cl`, for which the GI50 is 0.431 µM and the TGI stood at 3.45 µM.

For `COC1CCC(N2C(=O)CNc3ncc(-c4ccc(C(C)(C)O)nc4)nc32)CC1` (stereo not given), the GI50 is 0.199 µM and 0.0768 µM; the TGI was 3.08 µM and 10.5 µM.

For the compound `Cc1cc(I)cc(CN(C)CCCCN2CCCCC2)c1O`, the GI50 was 14.2 µM and the TGI came out at 36.6 µM.
